Laboratory results from PMC6435255 (Nature chemistry, 2018).

Assays:
hENT1 [1] = biological target: T1, hENT1 (Homo sapiens, UniProt Q99808); assay type: cell-based; conditions: PK15-ENT1 cells, combined with rapadocin
T1 sequence (Q99808 1-456): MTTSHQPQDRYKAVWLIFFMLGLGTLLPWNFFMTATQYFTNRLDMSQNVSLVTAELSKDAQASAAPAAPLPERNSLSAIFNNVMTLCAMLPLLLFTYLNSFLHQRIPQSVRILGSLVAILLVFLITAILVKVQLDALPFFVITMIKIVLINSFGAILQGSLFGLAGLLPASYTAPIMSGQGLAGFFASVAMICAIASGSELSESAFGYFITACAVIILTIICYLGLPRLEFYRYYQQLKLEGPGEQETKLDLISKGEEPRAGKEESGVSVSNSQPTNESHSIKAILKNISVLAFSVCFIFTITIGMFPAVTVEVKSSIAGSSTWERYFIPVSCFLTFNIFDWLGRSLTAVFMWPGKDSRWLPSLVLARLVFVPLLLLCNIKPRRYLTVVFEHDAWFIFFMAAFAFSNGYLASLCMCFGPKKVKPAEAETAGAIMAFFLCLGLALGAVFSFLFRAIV

hENT1 [2] = biological target: hENT1 (Homo sapiens, UniProt P62942+Q99808); experiment: GST-FKBP12 affinity pulldown, red blood cell membrane extract; assay type: binding; conditions: competitor
HUVEC = experiment: Adenosine; assay type: cell-based, human
hENT1 [3] = biological target: T1, hENT1; experiment: Affinity pulldown with biotinylated rapadocin, red blood cell membrane extract; assay type: binding; conditions: competitor
[4] = tested on: Id1-Luc luciferase reporter; experiment: BMP reporter gene assay; assay type: cell-based, human; conditions: Jurkat T cells, 10 µM, 18 h

Sequence of hENT1 (Homo sapiens, UniProt P62942+Q99808) (P62942 whole entry, one chain of several): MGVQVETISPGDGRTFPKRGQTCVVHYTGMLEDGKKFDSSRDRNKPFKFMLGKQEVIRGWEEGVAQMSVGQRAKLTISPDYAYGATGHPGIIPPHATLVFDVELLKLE

| antagonism of rapadocin inhibition of hENT1-mediated thymidine uptake (hENT1 [1]) | competition of GST-FKBP12-rapadocin association with hENT1 (hENT1 [2]) | competition of hENT1 binding of the biotin-rapadocin probe (hENT1 [3]) | activation of the Id1-Luc reporter gene [4] | SMILES | IC50, nucleoside uptake (HUVEC) |
| --- | --- | --- | --- | --- | --- |
| did not antagonize |  |  |  | COc1ccc(-c2ccc3c(N4CCOC[C@@H]4C)nc(N4CCOC[C@@H]4C)nc3n2)cc1CO [AZD8055] |  |
| antagonize | sensitive to competition | not appreciably | activated the Id1-Luc reporter gene | C=CC[C@@H]1/C=C(\C)C[C@H](C)C[C@H](OC)[C@H]2O[C@@](O)(C(=O)C(=O)N3CCCC[C@H]3C(=O)O[C@H](/C(C)=C/[C@@H]3CC[C@@H](O)[C@H](OC)C3)[C@H](C)[C@@H](O)CC1=O)[C@H](C)C[C@@H]2OC [FK506] | low micromolar range |
| antagonize | sensitive to competition | not appreciably | activated the Id1-Luc reporter gene | CO[C@H]1C[C@@H]2CC[C@@H](C)[C@@](O)(O2)C(=O)C(=O)N2CCCC[C@H]2C(=O)O[C@H]([C@H](C)C[C@@H]2CC[C@@H](O)[C@H](OC)C2)CC(=O)[C@H](C)/C=C(\C)[C@@H](O)[C@@H](OC)C(=O)[C@H](C)C[C@H](C)/C=C/C=C/C=C/1C [rapamycin] | low micromolar range |
